Experimental data from US9695155B2, “Herbicidal substituted pyrimidinyloxy benzene compounds” (E. I. DU PONT DE NEMOURS AND COMPANY, priority 2013, dated 2017).

Legend:
field violet = test: Test D preemergence; format: in vivo, Viola arvensis; conditions: Viola arvensis, pre-emergence; for pest or weed control at 31 g/ha: 31 g ai/ha; for pest or weed control at 62 g/ha: 62 g ai/ha; for pest or weed control at 125 g/ha: 125 g ai/ha
Excerpt: (§1) Seeds of plant species selected from bluegrass (annual bluegrass, Poa annua), blackgrass (Alopecurus myosuroides), canarygrass (littleseed canarygrass, Phalaris minor), chickweed (common chickweed, Stellaria media), galium (catchweed bedstraw, Galium aparine), bromegrass, downy (downy bromegrass, Bromus tectorum), field poppy (Papaver rhoeas), field violet (Viola arvensis), green foxtail (Setaria viridis), deadnettle (henbit deadnettle, Lamium amplexicaule), Italian ryegrass (Lolium multiflorum), kochia (Kochia scoparia), lambsquarters (Chenopodium album), oilseed rape (Brassica napus), pigweed (Amaranthus retroflexus), chamomile (scentless chamomile, Matricaria inodora), Russian thistle (Salsola kali), speedwell (bird's-eye speedwell, Veronica persica), spring barley (Hordeum vulgare), spring wheat (Triticum aestivum), wild buckwheat (Polygonum convolvulus), wild mustard (Sinapis arvensis), wild oat (Avena fatua), wild radish (Raphanus raphanistrum), windgrass (Apera spica-venti), winter barley (Hordeum vulgare), and winter wheat (Triticum aestivum) were planted into a silt loam soil and treated preemergence with test chemicals formulated in a non-phytotoxic solvent mixture which included a surfactant.
(§2) At the same time, these species were planted in pots containing Redi-Earth® planting medium (Scotts Company, 14111 Scottslawn Road, Marysville, Ohio 43041) comprising spaghnum peat moss, vermiculite, wetting agent and starter nutrients and treated with postemergence applications of the test chemicals formulated in the same manner. Plants ranged in height from 2 to 18 cm (1- to 4-leaf stage). Treated plants and controls were maintained in a controlled growth environment for 7 to 21 days after which time all species were compared to controls and visually evaluated. Plant response ratings, summarized in Table D, are based on a scale of 0 to 100 where 0 is no effect and 100 is complete control. A dash (-) response means no test result.

wild buckwheat = test: Test D preemergence; format: in vivo, Polygonum convolvulus; conditions: Fallopia convolvulus, pre-emergence; for pest or weed control at 31 g/ha: 31 g ai/ha; for pest or weed control at 62 g/ha: 62 g ai/ha; for pest or weed control at 125 g/ha: 125 g ai/ha
Excerpt: as §1, §2

windgrass = test: Test D postemergence; format: in vivo, Apera spica-venti; conditions: Apera spica-venti, post-emergence; for pest or weed control at 31 g/ha: 31 g ai/ha; for pest or weed control at 62 g/ha: 62 g ai/ha; for pest or weed control at 125 g/ha: 125 g ai/ha
Excerpt: as §1, §2

bluegrass = test: Test D preemergence; format: in vivo, Poa annua; conditions: Poa annua, pre-emergence; for pest or weed control at 31 g/ha: 31 g ai/ha; for pest or weed control at 62 g/ha: 62 g ai/ha; for pest or weed control at 125 g/ha: 125 g ai/ha
Excerpt: as §1, §2

canarygrass = test: Test D postemergence; format: in vivo, Phalaris minor; conditions: Phalaris minor, post-emergence; for pest or weed control at 31 g/ha: 31 g ai/ha; for pest or weed control at 62 g/ha: 62 g ai/ha; for pest or weed control at 125 g/ha: 125 g ai/ha
Excerpt: as §1, §2

oilseed rape [1] = test: Test D preemergence; format: in vivo, Brassica napus; conditions: Brassica napus, pre-emergence; for plant injury at 31 g/ha: 31 g ai/ha; for plant injury at 62 g/ha: 62 g ai/ha; for plant injury at 125 g/ha: 125 g ai/ha
Excerpt: as §1, §2

oilseed rape [2] = test: Test D postemergence; format: in vivo, Brassica napus; conditions: Brassica napus, post-emergence; for plant injury at 31 g/ha: 31 g ai/ha; for plant injury at 62 g/ha: 62 g ai/ha; for plant injury at 125 g/ha: 125 g ai/ha
Excerpt: as §1, §2

wild oat = test: Test D preemergence; format: in vivo, Avena fatua; conditions: Avena fatua, pre-emergence; for pest or weed control at 31 g/ha: 31 g ai/ha; for pest or weed control at 62 g/ha: 62 g ai/ha; for pest or weed control at 125 g/ha: 125 g ai/ha
Excerpt: as §1, §2

bromegrass, downy = test: Test D preemergence; format: in vivo, Bromus tectorum; conditions: Bromus tectorum, pre-emergence; for pest or weed control at 31 g/ha: 31 g ai/ha; for pest or weed control at 62 g/ha: 62 g ai/ha; for pest or weed control at 125 g/ha: 125 g ai/ha
Excerpt: as §1, §2

[3] = scale 0-100, read-out: Plant response rating, Field Violet
[4] = scale 0-100, read-out: Plant response rating, Buckwheat, Wild
[5] = scale 0 to 100 (0 no effect, 100 complete control), read-out: Plant response rating, Windgrass
[6] = scale 0-100, read-out: Plant response rating, Bluegrass
[7] = scale 0 to 100 (0 no effect, 100 complete control), read-out: Plant response rating, Canarygrass
[8] = scale 0-100, read-out: Plant response rating, Oilseed Rape
[9] = scale 0 to 100 (0 no effect, 100 complete control), read-out: Plant response rating, Oilseed Rape
[10] = scale 0-100, read-out: Plant response rating, Oat, Wild
[11] = scale 0-100, read-out: Plant response rating, Bromegrass, Downy

Compound | pest or weed control at 31 g/ha (field violet; [3]) | pest or weed control at 62 g/ha (field violet; [3]) | pest or weed control at 125 g/ha (field violet; [3]) | pest or weed control at 31 g/ha (wild buckwheat; [4]) | pest or weed control at 62 g/ha (wild buckwheat; [4]) | pest or weed control at 125 g/ha (wild buckwheat; [4]) | pest or weed control at 31 g/ha (windgrass; [5]) | pest or weed control at 62 g/ha (windgrass; [5]) | pest or weed control at 125 g/ha (windgrass; [5]) | pest or weed control at 31 g/ha (bluegrass; [6]) | pest or weed control at 62 g/ha (bluegrass; [6]) | pest or weed control at 125 g/ha (bluegrass; [6]) | pest or weed control at 31 g/ha (canarygrass; [7]) | pest or weed control at 62 g/ha (canarygrass; [7]) | pest or weed control at 125 g/ha (canarygrass; [7]) | plant injury at 31 g/ha (oilseed rape [1]; [8]) | plant injury at 62 g/ha (oilseed rape [1]; [8]) | plant injury at 125 g/ha (oilseed rape [1]; [8]) | plant injury at 31 g/ha (oilseed rape [2]; [9]) | plant injury at 62 g/ha (oilseed rape [2]; [9]) | other results
Fc1cccc(Oc2ncc(Cl)cn2)c1-n1cc(C(F)F)nn1 [Compound 141, 5-chloro-2-[2-[4-(difluoromethyl)-1H-1,2,3-triazol-1-yl]-3-fluorophenoxy]pyrimidine] | 100% | 100% | 100% | 100% | 100% | 100% | 10% | 50% | 60% | 35% | 90% | 90% | 25% | 35% | 55% | 100% | 100% | 100% | 95% | 100% | pest or weed control at 16 g/ha (field violet; 16 g ai/ha, scale 0 (no effect) to 100 (complete control), read-out: Plant response rating, Field Violet): 100%; pest or weed control at 16 g/ha (wild buckwheat; 16 g ai/ha, scale 0 (no effect) to 100 (complete control), read-out: Plant response rating, Buckwheat, Wild): 100%; pest or weed control at 16 g/ha (windgrass; 16 g ai/ha, scale 0-100, read-out: Plant response rating, Windgrass): 5%; pest or weed control at 16 g/ha (bluegrass; 16 g ai/ha, scale 0 (no effect) to 100 (complete control), read-out: Plant response rating, Bluegrass): 15%; pest or weed control at 16 g/ha (canarygrass; 16 g ai/ha, scale 0-100, read-out: Plant response rating, Canarygrass): 10%; plant injury at 16 g/ha (oilseed rape [1]; 16 g ai/ha, scale 0 (no effect) to 100 (complete control), read-out: Plant response rating, Oilseed Rape): 100%; plant injury at 16 g/ha (oilseed rape [2]; 16 g ai/ha, scale 0-100, read-out: Plant response rating, Oilseed Rape): 75%; plant injury at 125 g/ha (oilseed rape [2]; [9]): 100%; pest or weed control at 16 g/ha (wild oat; 16 g ai/ha, scale 0 (no effect) to 100 (complete control), read-out: Plant response rating, Oat, Wild): 30%; pest or weed control at 31 g/ha (wild oat; [10]): 65%; pest or weed control at 62 g/ha (wild oat; [10]): 80%; pest or weed control at 125 g/ha (wild oat; [10]): 98%; pest or weed control at 16 g/ha (bromegrass, downy; 16 g ai/ha, scale 0 (no effect) to 100 (complete control), read-out: Plant response rating, Bromegrass, Downy): 30%; pest or weed control at 31 g/ha (bromegrass, downy; [11]): 45%; pest or weed control at 62 g/ha (bromegrass, downy; [11]): 85%; pest or weed control at 125 g/ha (bromegrass, downy; [11]): 95%
N#Cc1cccc(Oc2ncc(Cl)cn2)c1-n1cc(Br)cn1 [Compound 52, 2-(4-bromo-1H-pyrazol-1-yl)-3-[(5-chloro-2-pyrimidinyl)oxy]benzonitrile] | 75% | 95% | 100% | 10% | 50% | 100% | 15% | 20% | 25% | 0% | 0% | 10% | 35% | 35% | 50% | 0% | 80% | 100% | 55% | 65% | pest or weed control at 250 g/ha (field violet; 250 g ai/ha, scale 0-100, read-out: Plant response rating, Field Violet): 100%; pest or weed control at 250 g/ha (wild buckwheat; 250 g ai/ha, scale 0-100, read-out: Plant response rating, Buckwheat, Wild): 100%; pest or weed control at 250 g/ha (windgrass; 250 g ai/ha, scale 0 to 100 (0 no effect, 100 complete control), read-out: Plant response rating, Windgrass): 40%; pest or weed control at 250 g/ha (bluegrass; 250 g ai/ha, scale 0-100, read-out: Plant response rating, Bluegrass): 60%; pest or weed control at 250 g/ha (canarygrass; 250 g ai/ha, scale 0 to 100 (0 no effect, 100 complete control), read-out: Plant response rating, Canarygrass): 60%; plant injury at 250 g/ha (oilseed rape [1]; 250 g ai/ha, scale 0-100, read-out: Plant response rating, Oilseed Rape): 100%; plant injury at 125 g/ha (oilseed rape [2]; [9]): 85%; plant injury at 250 g/ha (oilseed rape [2]; 250 g ai/ha, scale 0 to 100 (0 no effect, 100 complete control), read-out: Plant response rating, Oilseed Rape): 95%; pest or weed control at 31 g/ha (wild oat; [10]): 0%; pest or weed control at 62 g/ha (wild oat; [10]): 0%; pest or weed control at 125 g/ha (wild oat; [10]): 0%; pest or weed control at 250 g/ha (wild oat; 250 g ai/ha, scale 0-100, read-out: Plant response rating, Oat, Wild): 20%; pest or weed control at 31 g/ha (bromegrass, downy; [11]): 0%; pest or weed control at 62 g/ha (bromegrass, downy; [11]): 0%; pest or weed control at 125 g/ha (bromegrass, downy; [11]): 0%; pest or weed control at 250 g/ha (bromegrass, downy; 250 g ai/ha, scale 0-100, read-out: Plant response rating, Bromegrass, Downy): 0%
